Measured values as given in patent publication US10640492B2, “Tubulin inhibitor” (SHENZHEN NEPTUNUS PHARMACEUTICAL RESEARCH INSTITUTE CO., …, priority 2016, dated 2020).
Where two headings read alike, the source gives them in different places.

Assays:
[1] = test system: HT-1080 human fibrosarcoma cell strain
Description: (§1) To test the cytotoxic IC50 values of 14 candidate compounds against 5 cell strains (MDA-MB-231, HT-1080, AGS, A-673 & HUVEC) using a CCK-8 test kit.
(§2) a) The compound was serially diluted with DMSO starting from 0.5 μM, using twice echelon dilution.
(§3) The logarithmic growth phase cells were collected and counted. The cells were re-suspended in complete medium, whose concentration was adjusted according to the test results of the cell density optimization, and then seeded into 96-well plates with 100 μl of the cell suspension to each well. The cells were incubated in a 37° C., 100% relative humidity, 5% CO2 incubator for 24 hours.
(§4) b) The test compound was diluted with the medium to the corresponding action concentrations set up, and added into the cells in the plates at 25 μl/well. The test compound was prepared in 9 final action concentrations, which were obtained by sequentially diluted from 500 nM using twice echelon dilution.
(§5) c) The cells were incubated in a 37° C., 100% relative humidity, 5% CO2 incubator for 72 hours.
(§6) d) The medium was removed from the cells, and a complete medium containing 10% CCK-8 was added and incubated in a 37° C. incubator for 1-4 hours.
(§7) e) After gentle shaking, the absorbance at 450 nm of the sample was measured on a SpectraMax M5 Microplate Reader, and the inhibition ratio was calculated using the absorbance at 650 nm as reference.
(§8) The inhibition ratio of the drug on tumor cell growth was calculated as follows: tumor cell growth inhibition %=[(Ac−As)/(Ac−Ab)]×100%
(§9) The IC50 curve was fitted and the IC50 value was calculated using the software Graphpad Prism 5 and using the calculation formula log(inhibitor) vs. normalized response-variable slope or log(inhibitor) vs. response-variable slope.

[2] = test system: blood flow distribution in tissues and tumor tissue; assay: Blood flow distribution of tissues and tumor; assay type: in vivo, nude mice; conditions: two hours after administration, same pharmacodynamic dose, vs blank vehicle
Source text: In this example, the effects of drugs on blood flow distribution of different tissues and organs at the same pharmacodynamic dose were simultaneously tested.

[3] = test system: A-673 human rhabdomyosarcoma cell strain
Description: as §1, §2, §3, §4, §5, §6, §7, §8, §9

[4] = Stability investigation (10-day accelerated stress testing)
Description: The tested conditions included 40° C., 60° C., humidity 75%, humidity 92.5%, and light. And under each condition, moisture, purity, maximum single impurity and total impurity of the compound tested were compared to that of day 0.

[5] = test system: drug-resistant MES-SA cells (p-glycoprotein induced); assay: Inhibitory effect on tumor proliferation, drug-resistant MES-SA transplanted tumor; assay type: in vivo; conditions: drug-resistant MES-SA nude mice, dose that does not reduce body weight, vs blank vehicle (FIG. 1)
Description: MES-SA cells (derived from ATCC) were cultured in low concentration of adriamycin for a long time to maintain sufficient cell viability and induced the expression of p-glycoprotein. After culturing for 10 months, the results of induced expression were detected by WB. After successful induction, the cells were cultured for one week in adriamycin-free medium. The tumor cells with adjusted concentration were inoculated into the armpit of nude mice. The transplanted tumors were treated with different drugs when they grew to a certain volume. Different doses of different drugs were administrated to blank mice to explore the drug dose not affecting the body weight of the animals, namely the dose to be administrated to treat the animals with transplanted tumors.

[6] = test system: AGS human gastric adenocarcinoma cell strain
Description: (§10) AGS human gastric adenocarcinoma cell strain (purchased from Shanghai Cell Resource Center, Chinese Academy of Sciences)
as §2, §3, §4, §5, §6, §7, §8, §9

[7] = test system: MDA-MB-231 human breast cancer cell strain
Description: as §1
(§11) MDA-MB-231 human breast cancer cell strain (purchased from Shanghai Cell Resource Center, Chinese Academy of Sciences)
as §2, §3, §4, §5, §6, §7, §8, §9

[8] = test system: HUVEC human umbilical vein endothelial cell strain
Description: (§12) HUVEC human umbilical vein endothelial cell strain (purchased from ScienCell Research Laboratories, Cat #8000, Lot #11233)
as §2, §3, §4, §5, §6, §7, §8, §9

[9] = test system: neutrophil count; conditions: rat, in vivo
Source text: (§13) Multiple doses of different drugs were administrated to the nude mice respectively and the potency of the drugs in inhibiting the transplanted tumor in the nude mice was investigated. Base on the investigation, the equivalent dose of each drug was identified and converted to rat dose before administrated to the rats. That is, by administrating the rats with relatively equivalent pharmacodynamic dose, the effect of the drugs on the neutrophil count was examined. After continuously administration for two weeks, blood samples were collected and neutrophil counts were measured (FIG. 3).

[10] = test system: HT-1080 human fibrosarcoma cell strain; assay: CCK-8 cytotoxicity IC50, HT-1080; conditions: HT-1080, 72 h, read-out: cytotoxicity IC50
Description: as §1, §2, §3, §4, §5, §6, §7, §8, §9

[11] = test system: neutrophil count; assay: Effect on the neutrophil count at equivalent pharmacodynamic dose; conditions: rats, continuous administration for two weeks (FIG. 3)
Source text: as §13

[12] = test system: tubulin in HuVEC cells; assay: Action on microtubule function, α-tubulin staining in HuVEC; assay type: cell-based, human; conditions: 2 μM, 30 minutes, vs DMSO control
Source text: Human umbilical vein endothelial cells (HuVEC from Cambrex) were used in this study.

[13] = test system: MDA-MB-231 human breast cancer cell strain; assay: CCK-8 cytotoxicity IC50, MDA-MB-231; conditions: MDA-MB-231, 72 h, read-out: cytotoxicity IC50
Description: as §1, §11, §2, §3, §4, §5, §6, §7, §8, §9

[14] = test system: AGS human gastric adenocarcinoma cell strain; assay: CCK-8 cytotoxicity IC50, AGS; conditions: 72 h, read-out: cytotoxicity IC50
Description: as §10, §2, §3, §4, §5, §6, §7, §8, §9

[15] = CCK-8 cytotoxicity IC50, HUVEC; conditions: human, HUVEC umbilical vein endothelial cells
Description: as §12, §2, §3, §4, §5, §6, §7, §8, §9

[16] = test system: A-673 human rhabdomyosarcoma cell strain; assay: CCK-8 cytotoxicity IC50, A-673; conditions: A673, 72 h, read-out: cytotoxicity IC50
Description: as §1, §2, §3, §4, §5, §6, §7, §8, §9

[17] = test system: tumor cells inoculated in nude mice
Description: The nude mice inoculated with tumor cells were administrated with blank vehicle, docetaxel, compound 17 as well as the combination drug of docetaxel and compound 17. The tumor volume was measured at different time period after the administration and the change of tumor volume was evaluated. At the same time, the change of body weight of the nude mice was examined to evaluate the antitumor effect and the toxicity degree of the drug. In addition, based on the above administration and grouping methods, the blood neutrophil count level for normal SD rats was measured before administration and after the final administration to evaluate the influence of the drug on neutrophil counts.

[18] = test system: blood neutrophil count; assay: Neutrophil count after compound 17 in combination with docetaxel; assay type: in vivo; conditions: normal SD rats, after final administration (FIG. 2C)
[19] = Day 10, sample 1 (no stress condition given)

C=CC(C)(C)c1[nH]cnc1/C=C1\NC(=O)[C@H](Cc2ccccc2)NC1=O [(−)phenylahistin, reference compound]
IC50 [1]: > 600 nM
distribution of blood flow in tissues except tumor tissues [2]: did not significantly affect the distribution of blood flow in tissues except tumor tissues
intratumoral blood flow distribution [2]: can significantly reduce the intratumoral blood flow distribution
IC50 [3]: > 600 nM
Content ([4]; 40° C., day 5): 97.86%
Maximum single impurity ([4]; 40° C., day 5): 0.73 RRT: 0.58) %
Content ([4]; 40° C., day 10): 98.36%
Maximum single impurity ([4]; 40° C., day 10): 1.22 (RRT: 0.58) %
Content ([4]; 60° C., day 5): 95.77%
Maximum single impurity ([4]; 60° C., day 5): 2.84 (RRT: 0.24) %
Content ([4]; 60° C., day 10): 93.45%
Maximum single impurity ([4]; 60° C., day 10): 3.97 (RRT: 0.24) %
Content ([4]; Day 0): 99.37%
Maximum single impurity ([4]; Day 0): 0.39 (RRT: 0.58) %
anti-tumor proliferation effect (tumor weight) [5]: almost had no effect against tumor proliferation
IC50 [6]: > 600 nM
IC50 [7]: > 600 nM
IC50 [8]: > 600 nM
neutrophil count [9]: significantly lower than blank vehicle group

CC(C)(C)c1[nH]cnc1/C=c1\[nH]c(=O)/c(=C/C=C/c2cc(F)ccc2Cl)[nH]c1=O [Compound 17]
IC50 [10]: 14.6 nM
distribution of blood flow in tissues except tumor tissues [2]: did not significantly affect the distribution of blood flow in tissues except tumor tissues
intratumoral blood flow distribution [2]: can significantly reduce the intratumoral blood flow distribution
stability, overall finding ([4]; 10-day accelerated test: 40° C., 60° C., humidity 75%, humidity 92.5%, light): stable
Content ([4]; Day 0): 99.8%
Maximum single impurity ([4]; Day 0): 0.03 (RRT: 0.31) %
Moisture ([4]; Day 0): 0.1%
Total impurity ([4]; Day 0): 0.06%
Content ([4]; Day 5, 40° C.): 100.9%
Maximum single impurity ([4]; Day 5, 40° C.): 0.02 (RRT: 0.31) %
Moisture ([4]; Day 5, 40° C.): 0.1%
Total impurity ([4]; Day 5, 40° C.): 0.05%
Content ([4]; Day 5, 60° C.): 99.0%
Maximum single impurity ([4]; Day 5, 60° C.): 0.03 (RRT: 0.31) %
Moisture ([4]; Day 5, 60° C.): 0.2%
Total impurity ([4]; Day 5, 60° C.): 0.06%
Content ([4]; Day 5, humidity 75%): 99.5%
Maximum single impurity ([4]; Day 5, humidity 75%): 0.02 (RRT: 0.32) %
Moisture ([4]; Day 5, humidity 75%): 0.2%
Total impurity ([4]; Day 5, humidity 75%): 0.07%
Content ([4]; Day 5, humidity 92.5%): 99.5%
Maximum single impurity ([4]; Day 5, humidity 92.5%): 0.02 (RRT: 0.31) %
Moisture ([4]; Day 5, humidity 92.5%): 0.3%
Total impurity ([4]; Day 5, humidity 92.5%): 0.07%
Content ([4]; Day 5, light): 100.3%
Maximum single impurity ([4]; Day 5, light): 0.04 (RRT: 0.31) %
Moisture ([4]; Day 5, light): 0.1%
Total impurity ([4]; Day 5, light): 0.07%
Content ([4]; Day 10, 40° C.): 100.5%
Maximum single impurity ([4]; Day 10, 40° C.): 0.04 (RRT: 0.31) %
Moisture ([4]; Day 10, 40° C.): 0.1%
Total impurity ([4]; Day 10, 40° C.): 0.07%
Content ([4]; Day 10, 60° C.): 99.7%
Maximum single impurity ([4]; Day 10, 60° C.): 0.03 (RRT: 0.31) %
Moisture ([4]; Day 10, 60° C.): 0.2%
Total impurity ([4]; Day 10, 60° C.): 0.08%
Content ([4]; Day 10, humidity 75%): 99.0%
Maximum single impurity ([4]; Day 10, humidity 75%): 0.04 (RRT: 0.31) %
Moisture ([4]; Day 10, humidity 75%): 0.2%
Total impurity ([4]; Day 10, humidity 75%): 0.11%
Content ([4]; Day 10, humidity 92.5%): 99.4%
Maximum single impurity ([4]; Day 10, humidity 92.5%): 0.03 (RRT: 0.31) %
Moisture ([4]; Day 10, humidity 92.5%): 0.3%
Total impurity ([4]; Day 10, humidity 92.5%): 0.08%
Content ([4]; Day 10, light): 99.6%
Maximum single impurity ([4]; Day 10, light): 0.04 (RRT: 0.31) %
Moisture ([4]; Day 10, light): 0.1%
Total impurity ([4]; Day 10, light): 0.09%
Content [4, 19]: 100.4%
Maximum single impurity [4, 19]: 0.03 (RRT: 0.31) %
Moisture [4, 19]: 0.1%
Total impurity [4, 19]: 0.08%
neutrophil count [11]: had no obvious effect on neutrophils
cell membrane blebbing [12]: induced
microtubule depolymerization [12]: induced
IC50 [13]: 20.4 nM
IC50 [14]: 10.8 nM
IC50 at 72 h [15]: 35 nM
IC50 [16]: 7.25 nM
anti-tumor proliferation effect (tumor weight) [5]: can effectively exert anti-tumor proliferation effects
inhibition of tumor proliferation (tumor volume) ([17]; nude mice inoculated with tumor cells (FIG. 2A)): can effectively inhibit the proliferation of tumor in vivo

CC(=O)O[C@@]12CO[C@@H]1C[C@H](O)[C@@]1(C)C(=O)[C@H](O)C3=C(C)[C@@H](OC(=O)[C@H](O)[C@@H](NC(=O)OC(C)(C)C)c4ccccc4)C[C@@](O)([C@@H](OC(=O)c4ccccc4)[C@H]21)C3(C)C [docetaxel, reference compound]
neutrophil count [11]: can significantly reduce the neutrophil count
blood neutrophil count [18]: neutrophil count decrease caused by docetaxel
anti-tumor proliferation effect (tumor weight) [5]: relatively poor pharmacodynamic effect
change of body weight (toxicity) ([17]; mouse, in vivo): weight loss of animals caused by the toxicity of docetaxel
